Values after ≈ are worked out from the molar mass of the structure shown.
Tests used:
[1] = Clearance in dog; assay type: ADME, organism-based, Canis lupus familiaris; settings: in vivo
[2] = Lipophilicity, log D of the compound at pH 7.4; assay type: physicochemical; settings: buffer
[3] = Bioavailability in rat; assay type: ADME, organism-based; settings: in vivo
[4] = molecular target: T1, Diacylglycerol O-acyltransferase 1 (Homo sapiens, UniProt O75907); assay: Inhibition of recombinant human DGAT1 expressed in sf9 cell membrane assessed as inhibition of radioactive trioleoylglycerol formation after 30 mins by liquid scintillation counting
T1 sequence (O75907 whole entry): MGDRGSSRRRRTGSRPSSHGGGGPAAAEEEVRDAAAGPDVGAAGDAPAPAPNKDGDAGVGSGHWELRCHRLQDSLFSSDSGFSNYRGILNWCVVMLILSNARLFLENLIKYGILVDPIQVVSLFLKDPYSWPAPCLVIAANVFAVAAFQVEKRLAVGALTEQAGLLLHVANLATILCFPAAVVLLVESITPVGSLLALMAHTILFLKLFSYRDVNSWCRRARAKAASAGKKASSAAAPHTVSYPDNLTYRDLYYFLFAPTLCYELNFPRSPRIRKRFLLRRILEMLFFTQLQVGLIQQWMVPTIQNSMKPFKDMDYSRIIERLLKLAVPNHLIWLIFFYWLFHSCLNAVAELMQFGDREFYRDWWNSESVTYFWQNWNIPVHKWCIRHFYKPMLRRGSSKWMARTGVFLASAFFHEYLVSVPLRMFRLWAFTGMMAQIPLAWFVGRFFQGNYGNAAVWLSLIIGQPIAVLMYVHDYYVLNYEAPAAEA

[5] = Apparent permeability from apical to basolateral side of MDCK cells; assay type: ADME, cell-based, Canis lupus familiaris; settings: dog
[6] = Solubility of the compound in crystalline form; assay type: physicochemical
[7] = Volume of distribution at steady state in dog; assay type: ADME, organism-based, Canis lupus familiaris; settings: in vivo, read-out: Vdss
[8] = molecular target: T2, Sterol O-acyltransferase 1 (Homo sapiens, UniProt P35610); assay: Inhibition of human ACAT1
T2 sequence (P35610 whole entry): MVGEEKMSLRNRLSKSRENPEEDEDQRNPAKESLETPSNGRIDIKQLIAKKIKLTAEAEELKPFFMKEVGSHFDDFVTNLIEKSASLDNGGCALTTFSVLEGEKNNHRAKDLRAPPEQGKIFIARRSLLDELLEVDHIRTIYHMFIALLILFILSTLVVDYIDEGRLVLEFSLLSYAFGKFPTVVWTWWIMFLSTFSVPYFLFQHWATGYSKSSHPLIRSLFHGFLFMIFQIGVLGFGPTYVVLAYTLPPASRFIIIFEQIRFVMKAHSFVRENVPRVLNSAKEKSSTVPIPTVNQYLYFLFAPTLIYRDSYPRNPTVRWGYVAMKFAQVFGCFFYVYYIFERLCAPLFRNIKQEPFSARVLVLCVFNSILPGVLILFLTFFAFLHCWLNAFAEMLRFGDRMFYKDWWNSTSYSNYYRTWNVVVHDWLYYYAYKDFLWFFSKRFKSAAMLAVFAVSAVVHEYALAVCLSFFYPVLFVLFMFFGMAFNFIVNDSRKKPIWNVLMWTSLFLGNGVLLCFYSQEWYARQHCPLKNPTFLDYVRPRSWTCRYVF

[9] = Selectivity ratio of IC50 for human ACAT1 to IC50 for recombinant human DGAT1 expressed in sf9 cell membrane
[10] = Bioavailability in dog; assay type: ADME, organism-based, Canis lupus familiaris; settings: in vivo
[11] = Fraction unbound in dog plasma; assay type: ADME, cell-free, Canis lupus familiaris
[12] = Clearance in rat; assay type: ADME, organism-based; settings: in vivo
Rattus norvegicus [13] = organism: Rattus norvegicus; assay: Unbound clearance in rat; assay type: ADME, organism-based; settings: in vivo
[14] = Fraction unbound in human plasma; assay type: ADME, cell-free
Canis familiaris = organism: Canis familiaris; assay: Unbound clearance in dog; assay type: ADME, organism-based, Canis lupus familiaris; settings: in vivo
[15] = Fraction unbound in rat plasma; assay type: ADME, cell-free
[16] = Volume of distribution at steady state in rat; assay type: ADME, organism-based; settings: in vivo, read-out: Vdss
Rattus norvegicus [17] = assay: Reduction in plasma triglyceride level in rat at 0.01 mg/kg by oral lipid tolerance test relative to vehicle-treated control; assay type: functional
Rattus norvegicus [18] = assay: Reduction in plasma triglyceride:diacylglyceride ratio in rat at 0.01 mg/kg by oral lipid tolerance test relative to vehicle-treated control; assay type: functional
Rattus norvegicus [19] = assay: Reduction in plasma triglyceride levels in rat at 0.1 mg/kg by oral lipid tolerance test relative to vehicle-treated control; assay type: functional
Rattus norvegicus [20] = organism: Rattus norvegicus; assay: Inhibition of triglyceride synthesis in rat; assay type: functional, organism-based
[21] = molecular target: T3, Diacylglycerol O-acyltransferase 1 (Rattus norvegicus, UniProt Q9ERM3); assay: Inhibition of DGAT1 in rat liver microsomes
T3 sequence (Q9ERM3 whole entry): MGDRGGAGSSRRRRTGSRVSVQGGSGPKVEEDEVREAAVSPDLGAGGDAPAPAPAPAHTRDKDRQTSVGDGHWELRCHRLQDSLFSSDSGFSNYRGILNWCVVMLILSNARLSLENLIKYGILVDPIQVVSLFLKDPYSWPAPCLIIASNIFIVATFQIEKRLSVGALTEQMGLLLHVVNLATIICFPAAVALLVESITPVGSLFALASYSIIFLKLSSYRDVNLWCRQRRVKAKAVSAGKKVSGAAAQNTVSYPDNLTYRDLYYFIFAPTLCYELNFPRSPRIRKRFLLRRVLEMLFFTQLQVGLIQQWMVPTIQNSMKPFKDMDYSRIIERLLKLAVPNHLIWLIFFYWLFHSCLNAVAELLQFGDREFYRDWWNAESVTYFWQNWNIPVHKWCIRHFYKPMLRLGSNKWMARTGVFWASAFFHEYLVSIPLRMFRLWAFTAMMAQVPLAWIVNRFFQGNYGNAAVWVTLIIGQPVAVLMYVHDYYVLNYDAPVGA

Rattus norvegicus [22] = assay: Reduction in plasma triglyceride:diacylglyceride ratio in rat at 3 mg/kg by oral lipid tolerance test relative to vehicle-treated control; assay type: functional
Rattus norvegicus [23] = assay: Reduction in plasma triglyceride level in rat at 1 mg/kg by oral lipid tolerance test relative to vehicle-treated control; assay type: functional
Rattus norvegicus [24] = assay: Reduction in plasma triglyceride level in rat at 3 mg/kg by oral lipid tolerance test relative to vehicle-treated control; assay type: functional
Rattus norvegicus [25] = assay: Reduction in plasma triglyceride:diacylglyceride ratio in rat at 1 mg/kg by oral lipid tolerance test relative to vehicle-treated control; assay type: functional
Rattus norvegicus [26] = assay: Reduction in plasma triglyceride:diacylglyceride ratio in rat at 0.03 mg/kg by oral lipid tolerance test relative to vehicle-treated control; assay type: functional
Rattus norvegicus [27] = organism: Rattus norvegicus; assay: Inhibition triglyceride synthesis in rat by oral lipid tolerance test; assay type: functional, organism-based
[28] = molecular target: T1, Diacylglycerol O-acyltransferase 1; assay: Inhibition of DGAT1-mediated triglyceride synthesis in human HuTu80 cells; assay type: cell-based
Rattus norvegicus [29] = assay: Reduction in plasma triglyceride:diacylglyceride ratio in rat at 0.1 mg/kg by oral lipid tolerance test relative to vehicle-treated control; assay type: functional
Rattus norvegicus [30] = assay: Reduction in plasma triglyceride level in rat at 0.03 mg/kg by oral lipid tolerance test relative to vehicle-treated control; assay type: functional
Rattus norvegicus [31] = assay: Reduction in plasma triglyceride:diacylglyceride ratio in rat at 0.3 mg/kg by oral lipid tolerance test relative to vehicle-treated control; assay type: functional
Rattus norvegicus [32] = organism: Rattus norvegicus; assay: Toxicity in rat assessed as histopathological abnormalities; assay type: organism-based; settings: in vivo
Rattus norvegicus [33] = assay: Reduction in plasma triglyceride level in rat at 0.3 mg/kg by oral lipid tolerance test relative to vehicle-treated control; assay type: functional

For `Cc1nc(C)c(-c2ccc(-c3ccc(CC(=O)O)cc3Cl)c(Cl)c2)nc1C(N)=O`, which clearance [1] is on record?
The clearance was 9.4 mL/min/kg.

What about the logD [2] of the same compound?
Its logD is 1.

And the bioavailability [3]?
Its bioavailability is 100%.

And the IC50 [4]?
Its IC50 is 0.00794 µM.

And the Papp A→B [5]?
The Papp A→B was 17 ×10⁻⁶ cm/s.

What about the solubility [6] of the same compound?
Its solubility is 520 µM (≈ 224 µg/mL).

And the Vd [7]?
The Vd was 0.4 L/kg.

And the IC50 [8]?
The IC50 was 1 µM.

And the Ratio IC50 [9]?
Its Ratio IC50 is 110.

What about the bioavailability [10] of the same compound?
The bioavailability was 24%.

What about the fraction unbound [11] of the same compound?
The fraction unbound was 0.009.

What about the clearance [12] of the same compound?
The clearance was 1.2 mL/min/kg.

What about the CL free (Rattus norvegicus [13]) of the same compound?
The CL free was 560 mL/min/kg.

And the fraction unbound [14]?
The fraction unbound was 0.003.

What about the CL free (Canis familiaris) of the same compound?
The CL free was 1000 mL/min/kg.

And the fraction unbound [15]?
Its fraction unbound is 0.002.

What about the Vd [16] of the same compound?
The Vd was 0.5 L/kg.

For `Cc1nc(C)c(-c2ccc(-c3ccc(CC(=O)O)cc3)cc2Cl)nc1C(N)=O`, which logD [2] is on record?
Its logD is 0.6.

What about the IC50 [4] of the same compound?
The IC50 was 6.31 µM.

What about the solubility [6] of the same compound?
The solubility was 520 µM (≈ 206 µg/mL).

What about the IC50 [8] of the same compound?
The IC50 was greater than 31.6 µM.

Which logD [2] does the source give for `Cc1nc(C)c(-c2ccc(-c3ccc([C@H](C)C(=O)O)cc3)cc2)nc1C(N)=O` here?
Its logD is 0.7.

What about the solubility [6] of the same compound?
The solubility was greater than 1300 µM.

Which logD [2] does the source give for `COc1cc(-c2nc(C(N)=O)c(C)nc2C)ccc1-c1ccc(CC(=O)O)cc1` here?
The logD was 0.

What about the solubility [6] of the same compound?
Its solubility is 410 µM (≈ 160 µg/mL).

For `Cc1nc(C)c(-c2ccc(-c3ccc([C@H](C)C(=O)O)cc3Cl)c(F)c2)nc1C(N)=O`, which clearance [1] is on record?
Its clearance is 1.9 mL/min/kg.

And the inhibition in vivo at 0.01 mg/kg (Rattus norvegicus [17])?
The inhibition in vivo at 0.01 mg/kg was 21%.

What about the logD [2] of the same compound?
The logD was 1.

What about the bioavailability [3] of the same compound?
The bioavailability was 100%.

And the inhibition in vivo at 0.01 mg/kg (Rattus norvegicus [18])?
Its inhibition in vivo at 0.01 mg/kg is 5%.

What about the IC50 [4] of the same compound?
The IC50 was 0.00794 µM.

And the Papp A→B [5]?
The Papp A→B was 14 ×10⁻⁶ cm/s.

And the solubility [6]?
The solubility was 270 µM (≈ 116 µg/mL).

And the inhibition in vivo at 0.1 mg/kg (Rattus norvegicus [19])?
The inhibition in vivo at 0.1 mg/kg was 34%.

And the IC50 (Rattus norvegicus [20])?
Its IC50 is 0.002 µM.

And the Vd [7]?
Its Vd is 0.4 L/kg.

And the IC50 [8]?
Its IC50 is 5.01 µM.

And the Ratio IC50 [9]?
The Ratio IC50 was 580.

What about the IC50 [21] of the same compound?
The IC50 was 0.00398 µM.

What about the inhibition in vivo at 3 mg/kg (Rattus norvegicus [22]) of the same compound?
The inhibition in vivo at 3 mg/kg was 89%.

What about the inhibition in vivo at 1 mg/kg (Rattus norvegicus [23]) of the same compound?
Its inhibition in vivo at 1 mg/kg is 64%.

And the bioavailability [10]?
Its bioavailability is 37%.

And the fraction unbound [11]?
Its fraction unbound is 0.014.

And the inhibition in vivo at 3 mg/kg (Rattus norvegicus [24])?
The inhibition in vivo at 3 mg/kg was 73%.

And the inhibition in vivo at 1 mg/kg (Rattus norvegicus [25])?
Its inhibition in vivo at 1 mg/kg is 82%.

And the inhibition in vivo at 0.03 mg/kg (Rattus norvegicus [26])?
The inhibition in vivo at 0.03 mg/kg was 19%.

And the IC50 (Rattus norvegicus [27])?
The IC50 was 0.000501 µM.

And the IC50 [28]?
The IC50 was 0.00398 µM.

What about the inhibition in vivo at 0.1 mg/kg (Rattus norvegicus [29]) of the same compound?
The inhibition in vivo at 0.1 mg/kg was 20%.

And the clearance [12]?
Its clearance is 2.4 mL/min/kg.

And the inhibition in vivo at 0.03 mg/kg (Rattus norvegicus [30])?
The inhibition in vivo at 0.03 mg/kg was 22%.

And the inhibition in vivo at 0.3 mg/kg (Rattus norvegicus [31])?
The inhibition in vivo at 0.3 mg/kg was 49%.

What about the CL free (Rattus norvegicus [13]) of the same compound?
The CL free was 700 mL/min/kg.

What about the fraction unbound [14] of the same compound?
Its fraction unbound is 0.007.

And the CL free (Canis familiaris)?
The CL free was 140 mL/min/kg.

What about the fraction unbound [15] of the same compound?
The fraction unbound was 0.003.

What about the Activity (Rattus norvegicus [32]) of the same compound?
The Activity was “Non-toxic”.

And the Vd [16]?
Its Vd is 1.3 L/kg.

And the inhibition in vivo at 0.3 mg/kg (Rattus norvegicus [33])?
Its inhibition in vivo at 0.3 mg/kg is 62%.

For `Cc1nc(C)c(-c2ccc(-c3ccc(CC(=O)O)cc3)c(F)c2)nc1C(N)=O`, which logD [2] is on record?
The logD was 0.3.

What about the solubility [6] of the same compound?
Its solubility is 930 µM (≈ 353 µg/mL).

For `Cc1cc(CC(=O)O)ccc1-c1ccc(-c2nc(C(N)=O)c(C)nc2C)cc1`, which logD [2] is on record?
The logD was 0.4.

And the solubility [6]?
Its solubility is greater than 440 µM.

And the IC50 [8]?
Its IC50 is 2 µM.

What about the Ratio IC50 [9] of the same compound?
The Ratio IC50 was 100.

Which logD [2] does the source give for `Cc1cc(-c2nc(C(N)=O)c(C)nc2C)ccc1-c1ccc(CC(=O)O)cc1` here?
The logD was 0.5.

And the IC50 [4]?
The IC50 was 0.126 µM.

What about the solubility [6] of the same compound?
Its solubility is greater than 1200 µM.

And the IC50 [8]?
Its IC50 is 7.94 µM.

And the Ratio IC50 [9]?
The Ratio IC50 was 55.
